Test results: patent US20240217932A1, “PYRIDIUM ESTERS” (The Procter & Gamble Company, priority 2022, published 2024)

Experiments:
staphylococcus aureus = experiment: Surface Antimicrobial Kill Testing Method, activity normalized to triclosan internal standard (Gram positive); assay type: cell-based
Procedure: (§1) Inoculum is prepared by streaking microorganism onto a Tryptic Soy Agar (TSA) plate and incubating for 24 h at 33° C. Plated bacteria is resuspended in saline until the transmittance percentage falls within the accepted range for ˜10^8 cfu/mL. For K. pneumonia (Kp) and P. aeruginosa (Pa), this is 31.00-33.00% T. For S. aureus (Sa) this is 23.00-25.00% T. A 10× concentration is made by spinning down the prepared inoculum, removing the supernatant saline from the bacterial pellet, then resuspending the pellet in 1/10th of the original volume of saline. The final inoculum is prepared with 5% of “soil” in the form of Fetal Bovine Serum (FBS).
(§2) A 18×18 mm sterile glass coverslip is placed into an appropriate container (e.g. petri dish). 20 μL of prepared inoculum is added to the glass coverslip. Inoculum is then air-dried for 30 minutes in a 36° C. incubator. After drying, 40 μL of test sample is added on top of the dried inoculum. This is incubated at room temperature for the desired contact time. 5 mL of neutralizing media (Modified Letheen Broth+Tween+Lecithin (MLBTL)) is added to the coverslip and shaken on an orbital shaker for 5 minutes to ensure proper neutralization and extraction. Viability is then assessed of the neutralized and extracted sample by traditional/alternative microbiological techniques.
(§3) The normalized antimicrobial activity reported in the performance examples below was generated from detection time data obtained as described in the Surface Antimicrobial Kill Test Method. To account for day-to-day variability an internal standard was tested with each series. The internal standard was a composition of 0.25 wt % Triclosan, Sigma Aldrich (St. Louis, MO, USA; CAS #3380-34-5, 97.0-103.0% (active substance, GC)), 50 wt % DMSO, and 49.75 wt % H2O, with a final solution pH of 7.7. Normalized activity is reported following the equation 1 below.
(§4) Normalized Activity=(αΔDT-βΔDT)/(γΔDT-βΔDT) equation 1.
(§5) where, αΔDT is the average detection time of the antimicrobial compound, and γΔDT is the average detection time of the reference triclosan internal standard, and βΔDT is the average detection time of the background unperturbed bacteria.
(§6) Pyridinium esters of the present disclosure were tested as aqueous solutions in the Surface Antimicrobial Kill Testing Method above. To prepare test solutions pyridinium esters were first dissolved in the appropriate solvent. Second the selected surfactant is added to the mixture. After vortex (1 min, Vortex-2 Genie, vortex speed 8) mixing, the samples were then diluted with ½ portion of reverse osmosis water (RO water, Millipore Direct-Q™, pH 6). The aqueous solution was then vortexed (1 min, Vortex-2 Genie, vortex speed 8), to which the second ½ portion of water is added. The pH of the solution was then adjusted to the target pH using either 1N HCl, Glacial Acetic Acid, or 1N NaOH. The final solution was then vortexed (1 min, Vortex-2 Genic, vortex speed 8). An example batch sheet is provided below in Table 1.
(§7) In Performance Examples 1-4 below, formulations comprising solvent, surfactant, and pyridinium esters according to the present disclosure (e.g., based on hexyl 3-(alkylpyridinium)acrylate halides), are evaluated via microbial surface kill tests according to the Surface Antimicrobial Kill Testing Method provided above. After treatment, microbial growth is referenced and reported to a triclosan sample and unaltered microbes according to the Normalization of Antimicrobial Activity provided above.

[1] = Stability of the isolated solid by 1H NMR; assay type: physicochemical
Gram Negative bacteria = experiment: Surface Antimicrobial Kill Testing Method, activity normalized to triclosan internal standard (Gram negative); assay type: cell-based; details: water, pH 7
Procedure: as §1, §2, §3, §4, §5, §6, §7

[2] = 0.5 wt % compound, 3 wt % DEGBE, 1 wt % EcoSurf EH-9, 95.5 wt % reverse osmosis water, pH 7

## CCCCCCOC(=O)/C=C/c1cccnc1 [Synthetic Example 1, hexyl 3-(3-pyridyl)acrylate]
Staphylococcus aureus; [2]
  Gram Positive Referenced Microbial Activity: 0.11

## CCCCCCOC(=O)/C=C/c1ccc[n+](C)c1.[I-] [Synthetic Example 3, hexyl 3-(3-methylpyridinium)acrylate iodide]
Staphylococcus aureus; [2]
  Gram Positive Referenced Microbial Activity: 0.21
[1]
  Stability of the independent solid by 1H NMR: stable for several months

## CCCCCCOC(=O)/C=C/c1cc[n+](C)cc1.[I-] [Synthetic Example 4, hexyl 3-(4-methylpyridinium)acrylate iodide]
Staphylococcus aureus; [2]
  Gram Positive Referenced Microbial Activity: 1.2
[1]
  Stability of the independent solid by 1H NMR: stable for several months

## CCCCCCOC(=O)/C=C/c1ccc[n+](CCCCCC)c1.[Br-] [Synthetic Example 5, hexyl 3-(3-hexylpyridinium)acrylate bromide]
Gram Negative bacteria; 0.25 % Synthetic Example 5, 1 wt % Crodasinic LS30, 3 wt % DEGBE
  Gram Negative Referenced Microbial Activity: 0.41
Gram Negative bacteria; 0.25 % Synthetic Example 5, 1 wt % EH6, 3 wt % DEGBE
  Gram Negative Referenced Microbial Activity: >2.58
Gram Negative bacteria; 0.25 % Synthetic Example 5, 1 wt % L24-9, 3 wt % DEGBE
  Gram Negative Referenced Microbial Activity: 1.34
Gram Negative bacteria; 0.25 % Synthetic Example 5, 1 wt % Miranol Ultra, 3 wt % DEGBE
  Gram Negative Referenced Microbial Activity: 1.92
Gram Negative bacteria; 0.25 % Synthetic Example 5, 1 wt % Plantaren 2000, 3 wt % DEGBE
  Gram Negative Referenced Microbial Activity: >2.58
Gram Negative bacteria; 0.25 % Synthetic Example 5, 1 wt % SLS, 3 wt % DEGBE
  Gram Negative Referenced Microbial Activity: 0.08
Gram Negative bacteria; 0.25 % Synthetic Example 5, 1 wt % Tween80, 3 wt % DEGBE
  Gram Negative Referenced Microbial Activity: 1.37
Staphylococcus aureus; 0.063 wt % Synthetic Example 5, 1 wt % EcoSurf EH9, 3 wt % DEGBE, water, pH 7
  Gram Positive Referenced Microbial Activity: 0.55
Staphylococcus aureus; 0.125 wt % Synthetic Example 5, 1 wt % EcoSurf EH9, 3 wt % DEGBE, water, pH 7
  Gram Positive Referenced Microbial Activity: 0.93
Staphylococcus aureus; 0.25 % Synthetic Example 5, 1 wt % Crodasinic LS30, 3 wt % DEGBE, water, pH 7
  Gram Positive Referenced Microbial Activity: 0.42
Staphylococcus aureus; 0.25 % Synthetic Example 5, 1 wt % EH6, 3 wt % DEGBE, water, pH 7
  Gram Positive Referenced Microbial Activity: 1.09
Staphylococcus aureus; 0.25 % Synthetic Example 5, 1 wt % L24-9, 3 wt % DEGBE, water, pH 7
  Gram Positive Referenced Microbial Activity: 0.54
Staphylococcus aureus; 0.25 % Synthetic Example 5, 1 wt % Miranol Ultra, 3 wt % DEGBE, water, pH 7
  Gram Positive Referenced Microbial Activity: 0.78
Staphylococcus aureus; 0.25 % Synthetic Example 5, 1 wt % Plantaren 2000, 3 wt % DEGBE, water, pH 7
  Gram Positive Referenced Microbial Activity: >2.33
Staphylococcus aureus; 0.25 % Synthetic Example 5, 1 wt % SLS, 3 wt % DEGBE, water, pH 7
  Gram Positive Referenced Microbial Activity: 0.20
Staphylococcus aureus; 0.25 % Synthetic Example 5, 1 wt % Tween80, 3 wt % DEGBE, water, pH 7
  Gram Positive Referenced Microbial Activity: 0.57
Staphylococcus aureus; 0.25 wt % Synthetic Example 5, 1 wt % EcoSurf EH9, 3 wt % DEGBE, water, pH 7
  Gram Positive Referenced Microbial Activity: 2.02
Staphylococcus aureus; 0.5 wt % Synthetic Example 5, 1 wt % EcoSurf EH9, 3 wt % DEGBE, water, pH 7 (concentration series)
  Gram Positive Referenced Microbial Activity: >2.87
Staphylococcus aureus; [2]
  Gram Positive Referenced Microbial Activity: >1.42
Staphylococcus aureus; formulations of table 16
  pH range of formulations in which antimicrobial efficacy is maintained: 3-9
Staphylococcus aureus; formulations of table 17
  Concentration down to which antimicrobial efficacy against staphylococcus aureus is maintained: ≥ 0.063 wt %
Staphylococcus aureus; pH 3, 0.5 wt % compound, 1 wt % EcoSurf EH9, 3 wt % DEGBE, 95.5 wt % water
  Gram Positive Referenced Microbial Activity: >2.58
Staphylococcus aureus; pH 7, 0.5 wt % compound, 1 wt % EcoSurf EH9, 3 wt % DEGBE, 95.5 wt % water (pH series)
  Gram Positive Referenced Microbial Activity: >2.8
Staphylococcus aureus; pH 9, 0.5 wt % compound, 1 wt % EcoSurf EH9, 3 wt % DEGBE, 95.5 wt % water
  Gram Positive Referenced Microbial Activity: 2.53
[1]
  Stability of the independent solid by 1H NMR: stable for several months

## CCCCCCOC(=O)/C=C/c1cc[n+](CCCCCC)cc1.[Br-] [Synthetic Example 6, hexyl 3-(4-hexylpyridinium)acrylate bromide]
Staphylococcus aureus; [2]
  Gram Positive Referenced Microbial Activity: >1.39
[1]
  Stability of the independent solid by 1H NMR: stable for several months

## CCCCCCCC[n+]1cccc(/C=C/C(=O)OCCCCCC)c1.[Br-] [Synthetic Example 7, hexyl 3-(3-octylpyridinium)acrylate bromide]
Staphylococcus aureus; [2]
  Gram Positive Referenced Microbial Activity: >1.42
[1]
  Stability of the independent solid by 1H NMR: stable for several months

## CCCCCCCC[n+]1ccc(/C=C/C(=O)OCCCCCC)cc1.[Br-] [Synthetic Example 8, hexyl 3-(4-octylpyridinium)acrylate bromide]
Staphylococcus aureus; [2]
  Gram Positive Referenced Microbial Activity: >1.33
[1]
  Stability of the independent solid by 1H NMR: stable for several months
